Here are results for 20 molecules from patent publication US9856240B2, “Compounds that modulate intracellular calcium” (CalciMedica, Inc., priority 2011, dated 2018).

For assay [1], the system named is store-operated calcium entry in RBL-2H3 cells. Description: Fluorescence-based assay of store-operated calcium entry in RBL-2H3 cells. It is filed as cell-based. Conditions: Rattus norvegicus, thapsigargin, FLIPR Fluo-4, read-out: RBL-2H3 (IC50, μmol). The procedure: B. Fluorescence-Based Assay of Store-Operated Calcium Entry in RBL-2H3 Cells.
RBL-2H3 cells are obtained from ATCC and maintained in complete medium with 10% FBS at 37° C./6% CO2.
The day prior to performing the assay, RBL-2H3 cells are plated in 50 μL of complete medium in a 384 well plate. Cells are grown at 37° C./6% CO2 overnight and grow to 50-60% confluence by the next day. On the assay day, 1.5 μM Fluo-4-AM dye (Invitrogen) in complete medium is added and incubated for 1 hour at RT. Cells are washed twice in Ca^2+-free HBSS buffer and 35 μL Ca^2+-free HBSS buffer is added to each well. 10 μL of a test compound prepared in a Ca^2+-free HBSS solution at 4.5× of the desired concentration is added to a well and incubated for 5 minutes at RT. 10 μL of thapsigargin prepared in a Ca^2+-free HBSS solution at 5.5× of the desired concentration (5.5 uM) is added to each well and incubated for an additional 25 minutes. The initial baseline fluorescence signal is measured with a FLIPR^384 (Molecular Devices) plate reader. 5 μL of 12× calcium in HBSS (12 mM) is added and changes in cellular fluorescence are measured with the FLIPR^384 plate reader. In each well, the change in the fluorescent signal as a function of time due to calcium entry into the cell is determined by calculating the difference between the fluorescent signal measured 7 seconds after calcium addition and the initial baseline fluorescence signal at time zero (t=0). This parameter is designated Upslope. The IC50 value is calculated as the concentration at which 50% of the Upslope is inhibited.

Assay [2] has as its target T1, recombinant human STIM1 and Orai1 (HEK-293 cells) (Homo sapiens, UniProt Q96D31).
T1 construct: expressed in transfected cells; host or cells: HEK-293 cells stably expressing both proteins
Description: Fluorescence-based assay of store-operated calcium entry in Orai1/STIM1 stable cells. The class given is cell-based. Also noted: key to Orai1/STIM1 (IC50, μmol): A < 0.6 μmol; 0.6 μmol ≦ B ≦ 1.2 μmol; C > 1.2 μmol; — = no fit. Conditions: for Orai1/STIM1 (IC50, μmol): FLIPR fluo-4; for pIC50: FLIPR fluo-4, read-out: Orai1/STIM1 (IC50, μmol). The procedure:
A. Fluorescence-Based Assay of Store-Operated Calcium Entry in Orai1/STIM1 Stable Cells.
Cells stably expressing recombinant human STIM1 and Orai1 are generated by transfecting a human Orai1 expression plasmid (pcDNA3.1-Orai1-cmyc) into HEK-293 cells stably overexpressing human STIM1 (Roos et al. 2005 JCB 169(3): 435-445). Colonies of cells stably expressing both STIM1 and Orai1 proteins are selected and then subcloned by limiting dilution. Cells were cultured at 37° C./6% CO2 in complete medium with 10% FBS and appropriate selection markers.
The day prior to performing the assay Orai1/STIM1 stable cells are plated in 50 μL of complete medium at 90-95% confluence in a 384 well plate. Cells are grown at 37° C./6% CO2 overnight. On the day of the assay, 1.5 μM fluo-4-AM (Invitrogen) in complete medium is added to the cells, which are then incubated for 1 hour at RT. Cells are washed once in Ca^2+-free HBSS (Hank's buffered saline solution) and 35 μl of Ca^2+-free HBSS is added to each well. Test compounds are added to wells in a 10 μL Ca^2+-free HBSS solution, prepared at 4.5× the desired final concentration, and incubated for 30 minutes at RT. The initial baseline fluorescence signal is then measured with a FLIPR^384 (Molecular Devices) plate reader. Calcium entry is initiated by adding 5 μl of 10× CaCl2 (10 mM) in HBSS, and changes in cellular fluorescence are measured with the FLIPR^384 plate reader. In each well, the magnitude of the fluorescence signal as a result of calcium entry into the cell is determined by calculating the difference between the peak fluorescence signal measured after calcium addition and the initial baseline fluorescence signal (designated Peak-Basal). IC50 values are typically calculated as the concentration that inhibited 50% of the Peak-Basal signal (Table A).

pIC50: −log10 of the molar value.

T1 sequence (Q96D31 whole entry): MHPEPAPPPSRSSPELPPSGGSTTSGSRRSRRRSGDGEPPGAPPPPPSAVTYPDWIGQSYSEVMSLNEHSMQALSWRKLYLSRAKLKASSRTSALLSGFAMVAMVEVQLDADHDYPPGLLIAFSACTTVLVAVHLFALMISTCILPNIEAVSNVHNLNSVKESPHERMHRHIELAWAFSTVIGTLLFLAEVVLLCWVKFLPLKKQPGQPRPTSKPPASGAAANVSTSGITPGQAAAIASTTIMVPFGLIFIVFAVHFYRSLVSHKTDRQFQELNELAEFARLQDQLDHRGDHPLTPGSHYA

For `O=C(Nc1ccc(-c2cc3c(cc2Cl)OC(F)(F)O3)cn1)c1nsc(Cl)c1Cl` [Example 16, 4,5-dichloro-N-(5-(6-chloro-2,2-difluorobenzo[d][1,3]dioxol-5-yl)pyridin-2-yl)isothiazole-3-carboxamide], the pIC50 in assay [1] is below 5.92. Also, the “Orai1/STIM1 (IC50, μmol)” value in assay [2] is recorded as “—”.
Turning to `Cc1nc(C(F)(F)F)c(C(=O)Nc2ccc(-c3cc4c(cc3Cl)OC(F)(F)O4)cn2)s1` [Example 17, N-(5-(6-chloro-2,2-difluorobenzo[d][1,3]dioxol-5-yl)pyridin-2-yl)-2-methyl-4-(trifluoromethyl)thiazole-5-carboxamide], the pIC50 in assay [1] was above 6.22; in assay [2], below 5.92.
The matching figures for `Cc1nocc1C(=O)Nc1ccc(-c2cc3c(cc2Cl)OC(F)(F)O3)cn1` [Example 18, N-(5-(6-chloro-2,2-difluorobenzo[d][1,3]dioxol-5-yl)pyridin-2-yl)-3-methylisoxazole-4-carboxamide]: above 6.22 and above 6.22.
The matching figures for `Cc1cnoc1C(=O)Nc1ccc(-c2cc3c(cc2Cl)OC(F)(F)O3)cn1` [Example 20, N-(5-(6-chloro-2,2-difluorobenzo[d][1,3]dioxol-5-yl)pyridin-2-yl)-4-methylisoxazole-5-carboxamide]: above 6.22 and above 6.22.
Turning to `Cn1nc(C(F)(F)F)c(Cl)c1C(=O)Nc1cnc(-c2cc3c(cc2Cl)OC(F)(F)O3)cn1` [Example 24, 4-chloro-N-(5-(6-chloro-2,2-difluorobenzo[d][1,3]dioxol-5-yl)pyrazin-2-yl)-1-methyl-3-(trifluoromethyl)-1H-pyrazole-5-carboxamide], in assay [1], the pIC50 is above 6.22. The “Orai1/STIM1 (IC50, μmol)” value in assay [2] is “—”.
Take `Cc1onc(C(=O)Nc2cnc(-c3cc4c(cc3Cl)OC(F)(F)O4)cn2)c1C` [Example 25, N-(5-(6-chloro-2,2-difluorobenzo[d][1,3]dioxol-5-yl)pyrazin-2-yl)-4,5-dimethylisoxazole-3-carboxamide]: the pIC50 in assay [1] is above 6.22; in assay [2] it was 5.92 to 6.22.
On the same counts, the results for `Cc1cc(C(=O)Nc2cnc(-c3cc4c(cc3Cl)OC(F)(F)O4)cn2)n(C)n1` [Example 27, N-(5-(6-chloro-2,2-difluorobenzo[d][1,3]dioxol-5-yl)pyrazin-2-yl)-1,3-dimethyl-1H-pyrazole-5-carboxamide] are below 5.92 and 5.92 to 6.22.
As to `Cn1ncc(Cl)c1C(=O)Nc1cnc(-c2cc3c(cc2Cl)OC(F)(F)O3)cn1` [Example 29, 4-chloro-N-(5-(6-chloro-2,2-difluorobenzo[d][1,3]dioxol-5-yl)pyrazin-2-yl)-1-methyl-1H-pyrazole-5-carboxamide], the pIC50 in assay [1] and in assay [2] was above 6.22 in each case.
On to `Cc1noc(C)c1C(=O)Nc1cnc(-c2cc3c(cc2Cl)OC(F)(F)O3)cn1` [Example 31, N-(5-(6-chloro-2,2-difluorobenzo[d][1,3]dioxol-5-yl)pyrazin-2-yl)-3,5-dimethylisoxazole-4-carboxamide], for which the results for the pIC50 in assay [1] and in assay [2] were above 6.22 and 5.92 to 6.22, respectively.
Regarding `CCn1nccc1C(=O)Nc1cnc(-c2cc3c(cc2Cl)OC(F)(F)O3)cn1` [Example 32, N-(5-(6-chloro-2,2-difluorobenzo[d][1,3]dioxol-5-yl)pyrazin-2-yl)-1-ethyl-1H-pyrazole-5-carboxamide], the pIC50 in assay [1] and in assay [2] was above 6.22 in each case.
As to `O=C(Nc1cnc(-c2cc3c(cc2Cl)OC(F)(F)O3)cn1)c1ccnn1C(F)F` [Example 33, N-(5-(6-chloro-2,2-difluorobenzo[d][1,3]dioxol-5-yl)pyrazin-2-yl)-1-(difluoromethyl)-1H-pyrazole-5-carboxamide], the pIC50 in assay [1] was above 6.22. For the same molecule, in assay [2], the “Orai1/STIM1 (IC50, μmol)” value is “—”.
`Cc1cc2c(cc1-c1ccc(NC(=O)c3cccn3C)nc1)OC(F)(F)O2` [Example 34, N-(5-(2,2-difluoro-6-methylbenzo[d][1,3]dioxol-5-yl)pyridin-2-yl)-1-methyl-1H-pyrrole-2-carboxamide]: the pIC50 in assay [1] was above 6.22; in assay [2], 5.92 to 6.22.
As to `Cc1cc2c(cc1-c1cnc(NC(=O)c3c(Cl)cnn3C)cn1)OC(F)(F)O2` [Example 35, 4-chloro-N-(5-(2,2-difluoro-6-methylbenzo[d][1,3]dioxol-5-yl)pyrazin-2-yl)-1-methyl-1H-pyrazole-5-carboxamide], the pIC50 in assay [1] and in assay [2] was above 6.22 in each case.
`Cc1cc2c(cc1-c1cnc(NC(=O)c3c(Cl)c(C(F)(F)F)nn3C)cn1)OC(F)(F)O2` [Example 37, 4-chloro-N-(5-(2,2-difluoro-6-methylbenzo[d][1,3]dioxol-5-yl)pyrazin-2-yl)-1-methyl-3-(trifluoromethyl)-1H-pyrazole-5-carboxamide]: the pIC50 in assay [1] was above 6.22; in assay [2], 5.92 to 6.22.
The matching figures for `Cc1cc2c(cc1-c1cnc(NC(=O)c3c(C)noc3C)cn1)OC(F)(F)O2` [Example 38, N-(5-(2,2-difluoro-6-methylbenzo[d][1,3]dioxol-5-yl)pyrazin-2-yl)-3,5-dimethylisoxazole-4-carboxamide]: above 6.22 and below 5.92.
The matching figures for `Cn1nc(C(F)(F)F)cc1-c1cnc(NC(=O)c2c(Cl)cnn2C)cn1` [Example 39, 4-chloro-1-methyl-N-(5-(1-methyl-3-(trifluoromethyl)-1H-pyrazol-5-yl)pyrazin-2-yl)-1H-pyrazole-5-carboxamide]: below 5.92 and below 5.92.
Consider `Cc1nn(C)c(C(=O)Nc2cnc(-c3cc(C(F)(F)F)nn3C)cn2)c1Cl` [Example 40, 4-chloro-1,3-dimethyl-N-(5-(1-methyl-3-(trifluoromethyl)-1H-pyrazol-5-yl)pyrazin-2-yl)-1H-pyrazole-5-carboxamide], for which the pIC50 in assay [1] and in assay [2] was below 5.92 each time.
Consider `Cn1nc(C(F)(F)F)cc1-c1cnc(NC(=O)c2c(Cl)c(C(F)(F)F)nn2C)cn1` [Example 41, 4-chloro-1-methyl-N-(5-(1-methyl-3-(trifluoromethyl)-1H-pyrazol-5-yl)pyrazin-2-yl)-3-(trifluoromethyl)-1H-pyrazole-5-carboxamide], for which the pIC50 in assay [1] and in assay [2] was below 5.92 in each case.
Consider `Cc1noc(C)c1C(=O)Nc1cnc(-c2cc(C(F)(F)F)nn2C)cn1` [Example 42, 3,5-dimethyl-N-(5-(1-methyl-3-(trifluoromethyl)-1H-pyrazol-5-yl)pyrazin-2-yl)isoxazole-4-carboxamide], for which the pIC50 in assay [1] and in assay [2] was below 5.92 throughout.
On to `O=C(Nc1ncc(Oc2ccccc2C(F)(F)F)s1)c1c(F)cccc1F` [Example 43, (2,6-difluorophenyl)-N-{5-[2-(trifluoromethyl)phenoxy](1,3-thiazol-2-yl)}carboxamide], for which the values for the pIC50 in assay [1] and in assay [2] were 5.92 to 6.22 and below 5.92, respectively.
